Here are results for eight compounds from US20090134028A1, “Method of Estimating Effect of Test Chemical on Living Organisms” (Chemicals Evaluation and Research Institute, priority 2005, published 2009).

Like-named read-outs stand apart in the source and are kept apart here.

For data set [1] the following is noted: in vivo; cited from earlier work.
Data set [2] is described as follows: Prediction of liver cell hypertrophy using SVM from post-translational modification data. Details: species or system rat.
Data set [3] has as its system liver cell. Conditions: rat, in vivo.
Data set [4] concerns rat liver protein. Description: Two-dimensional gel electrophoresis of liver proteins after 28-day oral administration: difference of log2(αx/αc) between spots derived from one protein. The data set is classed as in vivo. The note with it: oral 28 days. As for the experimental part: 5-Weeks old male rats (F344, SPF strain) obtained from Charles River Laboratories Japan Inc. were divided into groups each consisting of three rats. To the rats of each chemical dosed group was forcibly administered orally a solution obtained by dissolving one of the chemicals shown in Tables 1 to 3, and to the rats of a vehicle control group was forcibly administered orally only a vehicle. The administration was conducted once a day for 28 days. On the 29th day from the start of administration, the liver of each rat was collected. A fragment was cut out from each liver and stored at −20° C. The protein collected from each rat was determined quantitatively by the Bradford method. Then, to the comparative sample collected from the chemical dosed group, the control sample collected from the vehicle control group, and a pool sample (which was a mixture of the comparative sample and the control sample) were added, at 0° C., Cy5, Cy3 and Cy2 (DMF solution, 1 ml) each of 200 pmol per […] of protein, and a labeling reaction was allowed to take place on ice for 30 minutes. After the completion of the reaction, an excessive amount of a Lysine solution (10 mM Lysis buffer solution, 1 ml) was added, followed by storage for 10 minutes to complete the reaction. Further, a x2 sample buffer [8 M urea, 4% (w/v) CHAPS, 20 mg/ml DTT, 2% (v/v) Pharmalytes] of same volume was added, followed by storage on ice for 10 minutes.
Then, the mixture of the resulting samples or each resulting sample was individually subjected to two-dimensional gel electrophoresis.
First-dimensional electrophoresis was conducted in Multiphor II (GE Helthcare Uk Ltd. Buckinghamshire, UK) using IPG (Immobilized pH Gradient) Strips (24 cm, pI3-10L) (GE Helthcare UK Ltd. Buckinghamshire, UK). A sample ([…] of protein) was added from a cup loading holder. Focussing was conducted by 40 kVh in total. After the electrophoresis, equilibration was made for 10 minutes each using a solution A obtained by adding 0.25% (w/v) of DTT to an equilibrating solution (50 mM Tris, pH 8.8, 6 M urea, 30% glycerol, 2% SDS) and a solution B obtained by adding 4.5% (w/v) of iodoacetamide to the equilibrating solution. Successively, second-dimensional electrophoresis was conducted in an Ettan DALT II system (GE Helthcare UK Ltd. Buckinghamshire, UK) using a self-made 12% uniform gel sandwiched between low-fluorescent glasses. Migration was conducted at 3 W (15° C.) overnight.
For each gel after migration, image capture was immediately conducted using Master Imager (GE Helthcare UK Ltd. Buckinghamshire, UK), at a wavelength corresponding to each Cy. The excitation wavelengths of Cy5, Cy3 and Cy2 were set at 625 nm, 480 nm and 425 nm, respectively, and their fluorescence wavelengths were set at 680 nm, 540 nm and 480 nm, respectively.
In the case of the sample obtained by mixing before electrophoresis, the recognition of spots of captured image and the quantitative determination and comparison between Cys in one gel were conducted using Decyder-DIA Soft (GE Helthcare UK Ltd. Buckinghamshire, UK). The matching of spots with the reference map of rat liver protein (2-D data base formed in-house by identifying rat liver 724 spots) was conducted using Decyder-BVA soft (GE Helthcare UK Ltd. Buckinghamshire, UK). When each sample after Cy labeling was independently subjected to electrophoresis, the quantitative determination of each spot and the matching of spots were conducted using PDQuest (Bio-Rad Laboratories, Inc.).
For the spots of the 127 proteins and their modified proteins, there was calculated a base 2 logarithm [log2(αx/αc)] of the ratio (αx/αc) of the expression amount (αx) of the comparative sample and the expression amount (αc) of the control sample. Then, a difference in logarithms was calculated between spots derived from one protein. The calculation of difference in logarithms was made for all combinations of spots derived from one protein. […]

[5] abbreviates: SVM prediction of liver cell hypertrophy, training set, top-ranked 20 sets of post-translational modification data.

With `CCN(CC)N=O` [Diethylnitrosamine], the Carcinogenicity entry in data set [1] was “+”. In data set [2], the Prediction result is −1 CORRECT. In data set [3], the “Finding of hepatocyte hypertrpy” value is “−” and the “pathology of liver cell hypertrophy in the liver” value (from here on “pathology”) is “no pathology of liver cell hypertrophy was seen”.
In the case of `c1ccoc1` [Furan], in data set [1], the Carcinogenicity entry is reported as “+”. In addition, in data set [2], the Prediction result is listed as −1. Further, in data set [3], the “Finding of hepatocyte hypertrpy” value is “+” and the “pathology” value is recorded as “pathology of liver cell hypertrophy was seen”.
Consider `IC(I)I` [Iodoform], for which the Carcinogenicity entry in data set [1] is on record as “−”. The Prediction result in data set [2] (setting [5]) is “+1 CORRECT”. Moreover, the “Finding of hepatocyte hypertrpy” value in data set [3] was “+”.
Take `O=NN1CCOCC1` [N-nitrosomorpholine]: the Carcinogenicity result in data set [1] was “+”. Further, the Prediction result in data set [2] is recorded as −1 CORRECT. In data set [3], the “Finding of hepatocyte hypertrpy” value is “−”. For the same compound, the “pathology” value in data set [3] is on record as “no pathology of liver cell hypertrophy was seen”. Also, the “Difference of log2(αx/αc)” value in data set [4] (ATP synthase alpha chain, spots 1064-1096, absolute value) was 1.824; in data set [4] (Carbonate dehydrogenase III, spots 2098-2113, absolute value), 1.038; in data set [4] (Cytoskeleton I type keratin-19, spots 1174-1447, absolute value), 1.451; in data set [4] (Cytoskeleton II type keratin-8, spots 1068-1481, absolute value), 1.344; in data set [4] (Heat shock protein 60 kDa, spots 941-974, absolute value), 1.910; in data set [4] (Hydroxyglutaryl-CoA synthase, spots 1215-1216, absolute value), 0.948. The “Difference of log2(αx/αc)” value in data set [4] (MAWD binding protein, spots 2032-2036, absolute value) is listed as 1.256; in data set [4] (Non-muscle type caldesmon, spots 628-654, absolute value), 1.618; in data set [4] (RIKEN cDNA 0610010D20, spots 1708-1753, absolute value) it was 1.349; in data set [4] (Transketorase, spots 789-813, absolute value), 1.074.
Turning to `c1ccc2ncccc2c1` [Quinoline], in data set [1], the Carcinogenicity result is “+”. The Prediction result in data set [2] (setting [5]) is on record as −1 CORRECT. Moreover, in data set [3], the “Finding of hepatocyte hypertrpy” value is “−” and the “pathology” value is “no pathology of liver cell hypertrophy was seen”.
With `C=CCc1ccc2c(c1)OCO2` [Safrole], the Carcinogenicity entry in data set [1] is listed as “+”. Besides, in data set [2], the Prediction result is reported as “+1 CORRECT”. For the same compound, in data set [3], the “Finding of hepatocyte hypertrpy” value is listed as “+” and the “pathology” value is “pathology of liver cell hypertrophy was seen”.
On to `ClC=C(Cl)Cl` [Trichloroethylene], for which the Carcinogenicity entry in data set [1] is reported as “+”. In addition, the Prediction result in data set [2] is listed as −1 CORRECT. Further, in data set [3], the “Finding of hepatocyte hypertrpy” value is “−” and the “pathology” value is “no pathology of liver cell hypertrophy was seen”.
On to `Cl[C@H]1[C@H](Cl)[C@H](Cl)[C@@H](Cl)[C@H](Cl)[C@H]1Cl` [α-Hexachlorocyclohexane], for which the Carcinogenicity result in data set [1] is reported as “+”. In addition, the Prediction result in data set [2] is “+1 CORRECT”. In data set [3], the “Finding of hepatocyte hypertrpy” value is given as “+” and the “pathology” value was “pathology of liver cell hypertrophy was seen”.
